Measurements: US11479563B2, “Biphenyl compound or salt thereof” (TAIHO PHARMACEUTICAL CO., LTD., priority 2017, dated 2022)
Structures can show the parent of a compound that is named as a salt. Where two headings read alike, the source gives them in different places.

How the values were obtained:
[1] = system: NCI-H146 cells (human small-cell lung cancer cell lines); experiment: Cell-growth inhibition test: NCI-H146 cells; assay type: cell-based; details: read-out: Cell-Growth Inhibition Test: NCI-H146 Cells IC50
Outline: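 NCI-H146 small-cell lung cancer cells were cultured with compound or DMSO for 10 days at 37°C, 5% CO2. Viability read by CellTiter-Glo luminescence; growth rate (%) = treated/DMSO luminescence × 100.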

[2] = system: HEL cells (human acute myelocytic leukemia cell lines); details: read-out: Cell-Growth Inhibition Test: HEL Cells IC50;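 further: viable cell count by CellTiter-Glo 2.0 luminescence after 5 days of culture at 37 °C, growth expressed relative to DMSO-only wells as 100%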
Protocol: (§1) Under the following conditions, an in vitro cell-growth inhibition test was performed with respect to HEL cells (human acute myelocytic leukemia cell lines), NCI-H1417 cells (human small-cell lung cancer cell lines), and NCI-H146 cells (human small-cell lung cancer cell lines).
(§2) The cells with the compound of the present invention or with dimethylsulfoxide alone were cultured at 37° C. in a 5% carbon-dioxide-containing incubator for 5 days (HEL cells) or 10 days (NCI-H1417 cells and NCI-H146 cells). After culture, the plate was allowed to stand at room temperature for 30 minutes, and 100 μL of the supernatant was removed from each well to leave 100 μL of the cell culture solution. To each well containing the remaining 100 μL of the cell culture solution, the same amount of CellTiter-Glo 2.0 Assay (Promega, Cat #: G9242) was added. The microplate was shaken with a plate mixer for 1 minute and then allowed to stand in a dark place for 10 minutes. Thereafter, the luminescence intensity of viable cells in each well was measured using a microplate reader (PerkinElmer, EnSpire). […] Cell growth rate (%)=T/C×100 T: The luminescence intensity in a well to which the compound of the present invention was added (count per second) C: The luminescence intensity in a well to which dimethylsulfoxide alone was added (count per second)

[3] = system: NCI-H1417 cells (human small-cell lung cancer cell lines); details: read-out: Cell-Growth Inhibition Test: NCI-H1417 Cells IC50;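 further: growth of NCI-H1417 cells over 10 days at 37 °C, read as viable-cell luminescence by CellTiter-Glo 2.0, expressed as % of DMSO-only control wells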
human LSD1 protein = target: T1, human LSD1 protein (Homo sapiens, UniProt O60341); experiment: Measurement of LSD1 inhibitory activity (in vitro); assay type: biochemical; details: human LSD1 protein, H3K4 (Me1)-biotin-labeled peptide 200 nM, preincubated 30 minutes; read-out: LSD1 inhibitory activity IC50
T1 construct: purchased Abcam ab80379
Protocol: To measure the inhibitory activity, first, the compound of the present invention was serially diluted in dimethylsulfoxide (DMSO). Sequentially, the solution of the compound of the present invention in DMSO (final concentration of DMSO: 5%) and human LSD1 protein (Abcam, ab80379) were added to a reaction buffer (25 mM Tris-HCl (pH 7.5), 50 mM KCl, 2 mM CHAPS, 1 mM DTT, 0.02% BSA). The mixture was preincubated at 25° C. for 30 minutes. […] Tranylcypromine (final concentration: 3 mM) was then added thereto to terminate the reaction.

[4] = system: HEL cells (human acute myelocytic leukemia cell lines); experiment: cells; details: read-out: Cell-Growth Inhibition Test: HEL Cells IC50 (nM);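 further: viable cell count by CellTiter-Glo 2.0 luminescence after 5 days of culture at 37 °C, growth expressed relative to DMSO-only wells as 100%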
Protocol: as §1, §2

[5] = system: NCI-H1417 cells (human small-cell lung cancer cell lines); experiment: cells; details: NCI-H1417, read-out: Cell-Growth Inhibition Test: NCI-H1417 Cells IC50 (nM);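 further: growth of NCI-H1417 cells over 10 days at 37 °C, read as viable-cell luminescence by CellTiter-Glo 2.0, expressed as % of DMSO-only control wells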

With Cc1c(F)c(-c2ccc(C(=O)N3[C@@H]4CC[C@H]3[C@@H](N)C4)cc2-c2ccc(C#N)c(F)c2)cc2nnn(CC3(O)CCC3)c12 (single isomer, unassigned) [Example 270] the IC50 ([1]; NCI-H146 cells) was 0.37 nM, the IC50 [2] was 0.26 nM and the IC50 [3] was 0.18 nM.

Cc1noc2cc(-c3ccc(C(=O)N4[C@@H]5CC[C@H]4C[C@@H](N)C5)cc3-c3ccc(C#N)c(F)c3)c(F)cc12 [Example 179, 5′-((3-endo)-3-amino-8-azabicyclo[3.2.1]octane-8-carbonyl)-3-fluoro-2′-(5-fluoro-3-methylbenzo[d]isoxazol-6-yl)-[1,1′-biphenyl]-4-carbonitrile] was tested, and the IC50 ([1]; NCI-H146 cells) was 1.05 nM, the IC50 [2] was 1.52 nM and the IC50 [3] was 3.36 nM.

Compound “3-fluoro-2′-(6-fluoro-1-(2-hydroxy-2-methylpropyl)-1H-indazol-5-yl)-5′-(2,7-diazaspiro[3.4]octane-6-carbonyl)-[1,1′-biphenyl]-4-carbonitrile [Example 199]” has an IC50 ([1]; NCI-H146 cells) of 5.45 nM, an IC50 [2] of 22 nM and an IC50 [3] of 4.55 nM.

With “2′-(6,7-difluoro-1-(2-hydroxy-2-methylpropyl)-1H-indol-5-yl)-3-fluoro-5′-(2,7-diazaspiro[3.4]octane-6-carbonyl)-[1,1′-biphenyl]-4-carbonitrile [Example 200]” the IC50 ([1]; NCI-H146 cells) was 2.31 nM, the IC50 [2] was 3.72 nM and the IC50 [3] was 1.23 nM.

Work on Cc1ccc(-c2ccc(CN3[C@H]4CC[C@@H]3[C@H](N)C4)cc2-c2ccc([N+](=O)[O-])cc2)cc1 (single isomer, unassigned) [Example 296, dihydrochloride] yielded an IC50 [2] of 5.83 nM and an IC50 [3] of 37.6 nM.

Work on CC(C)(O)Cn1ncc2cc(-c3ccc(CN4CC5(CCCNC5)C4)cc3-c3ccc(C#N)c(F)c3)c(F)cc21 [Example 298, 5′-((2,6-diazaspiro[3.5]nonan-2-yl)methyl)-3-fluoro-2′-(6-fluoro-1-(2-hydroxy-2-methylpropyl)-1H-indazol-5-yl)-[1,1′-biphenyl]-4-carbonitrile dihydrochloride] yielded an IC50 (human LSD1 protein) of 0.2 nM, an IC50 ([1]; Homo sapiens, NCI-H146) of 1 nM and an IC50 [4] of 0.46 nM. The IC50 [5] was 1.72 nM.
